# Test results from patent US5100797A, “Fucosidase inhibitors” (priority 1989, dated 1992).
# Experiments:
# [1] = target: T1, human liver α-L-fucosidase (Homo sapiens, UniProt P04066); assay: Inhibition of human liver α-L-fucosidase (4-umbelliferyl glycoside substrate, Dixon plot); type: biochemical; settings: for Ki: human liver extract, 4-umbelliferyl substrate 0.5 mM, Dixon graphical procedure; for fucosidase inhibition, in words: human liver α-L-fucosidase
# T1 construct: The resultant supernatant was used as the source of human glycosidases; from tissue; host or cells: post-mortem human liver, 37,000 g supernatant of homogenate
# T1 sequence (P04066 32-466): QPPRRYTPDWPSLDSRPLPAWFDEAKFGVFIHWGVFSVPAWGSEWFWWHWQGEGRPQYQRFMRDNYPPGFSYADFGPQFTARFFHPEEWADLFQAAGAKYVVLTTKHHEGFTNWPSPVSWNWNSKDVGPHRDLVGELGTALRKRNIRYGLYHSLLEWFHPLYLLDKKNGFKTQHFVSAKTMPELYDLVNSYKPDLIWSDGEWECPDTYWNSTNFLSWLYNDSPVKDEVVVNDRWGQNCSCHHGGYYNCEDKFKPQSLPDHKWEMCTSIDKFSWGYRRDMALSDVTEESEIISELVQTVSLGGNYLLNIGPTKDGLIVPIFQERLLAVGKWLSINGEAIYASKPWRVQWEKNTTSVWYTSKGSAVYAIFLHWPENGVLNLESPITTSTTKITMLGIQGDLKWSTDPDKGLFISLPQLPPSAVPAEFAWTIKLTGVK
# Procedure: (§1) Post-mortem human liver, which had been stored at -20° C. until required was homogenized in deionized water (50%, w/v) in a Potter-Elvehjem homogenizer and then centrifuged at 37,000 g for 30 min in an MSE 18 centrifuge. The resultant supernatant was used as the source of human glycosidases.
# The specificity of the inhibitors was determined by assaying the glycosidases in the presence of and absence of a 1 mM solution of each compound. […] The Lineweaver-Burk graphical procedure and secondary plots of the slope against inhibitor concentration were used to determine the nature of inhibition and the values of Ki for these activities.
# pKa of inhibitors = type: physicochemical
# [2] = system: N-acetyl-β-D-hexosaminidase; assay: Glycosidase specificity in human liver extract: N-acetyl-β-D-hexosaminidase; type: biochemical; settings: 1 mM compound
# Procedure: as §1, with “glycosidases. A lyophilized extract of liver from Charonia lampas was obtained from Seikagaku Kogyo Co., Japan for the isolation of α-L-fucosidase by the published procedure of Iijima and Egami, J. Biochem. 70, 75-78 (1971).” for “glycosidases.”
# (§2) The glycosidase activities in an extract of human liver were assayed by using the appropriate fluorigenic 4-umbelliferyl glycoside substrate (Koch-Light, Haverhill, Suffolk, U.K.) with a concentration of 0.5 mM at the optimal pH for each enzyme [Burditt et al., Biochem. J. 189, 467-473 (1980)]. The specificity of the inhibitors was determined by assaying the glycosidases in the presence of and absence of a 1 mM solution of each compound. The nature of the inhibition of human α-L-fucosidase, the value of Ki determined by using the Dixon graphical procedure and the effect of pH on the inhibition were investigated as described previously by Al Daher et al., Biochem. J. 258, 613-615 (1989). Bovine epididymal and Charonia lampas α-L-fucosidase were assayed using para-nitrophenyl-α-L-fucopyranoside as substrate in phosphate-citrate buffer (McIlvaine), pH 6.0, and 0.005 M-sodium acetate buffer, pH 4.5 containing 0.15 M NaCl, respectively. The Lineweaver-Burk graphical procedure and secondary plots of the slope against inhibitor concentration were used to determine the nature of inhibition and the values of Ki for these activities.
# [3] = target: T2, Bovine epididymal α-L-fucosidase (Bos taurus, UniProt Q2KIM0); assay: Inhibition of bovine epididymal α-L-fucosidase (Lineweaver-Burk); type: biochemical; settings: para-nitrophenyl-α-L-fucopyranoside; phosphate-citrate buffer pH 6.0; read-out: Ki (M) Bovine epididymis α-L-fucosidase
# T2 construct: Bovine epididymal and Charonia lampas α-L-fucosidase were assayed; from tissue; host or cells: bovine epididymis
# T2 sequence (Q2KIM0 23-468): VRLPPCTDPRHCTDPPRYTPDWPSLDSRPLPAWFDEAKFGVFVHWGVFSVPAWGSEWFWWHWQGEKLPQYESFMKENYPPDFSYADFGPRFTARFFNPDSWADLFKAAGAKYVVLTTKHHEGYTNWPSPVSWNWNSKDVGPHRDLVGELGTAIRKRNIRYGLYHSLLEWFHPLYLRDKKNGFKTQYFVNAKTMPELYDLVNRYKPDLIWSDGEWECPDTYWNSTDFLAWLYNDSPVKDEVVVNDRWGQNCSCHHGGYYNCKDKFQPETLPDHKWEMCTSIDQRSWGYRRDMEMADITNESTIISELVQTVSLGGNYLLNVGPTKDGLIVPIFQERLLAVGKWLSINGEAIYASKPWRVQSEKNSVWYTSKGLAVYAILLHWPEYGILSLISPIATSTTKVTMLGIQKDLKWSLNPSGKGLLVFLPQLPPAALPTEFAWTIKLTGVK
# Procedure: as §2
# [4] = target: Charonia lampas α-L-fucosidase; assay: Inhibition of Charonia lampas α-L-fucosidase (Lineweaver-Burk); type: biochemical; settings: para-nitrophenyl-α-L-fucopyranoside; sodium acetate buffer pH 4.5, 0.15 M NaCl; read-out: Ki (M) C. lampas α-L-fucosidase
# Procedure: as §1, with “glycosidases. A lyophilized extract of liver from Charonia lampas was obtained from Seikagaku Kogyo Co., Japan for the isolation of α-L-fucosidase by the published procedure of Iijima and Egami, J. Biochem. 70, 75-78 (1971).” for “glycosidases.”
# as §2
# α-D-mannosidase = target: T3, α-D-mannosidase (Homo sapiens, UniProt O00754); assay: Glycosidase specificity in human liver extract: α-D-mannosidase; type: biochemical
# T3 construct: The resultant supernatant was used as the source of human glycosidases; from tissue; host or cells: post-mortem human liver, 37,000 g supernatant of homogenate
# T3 sequence (O00754 50-601 limits assumed): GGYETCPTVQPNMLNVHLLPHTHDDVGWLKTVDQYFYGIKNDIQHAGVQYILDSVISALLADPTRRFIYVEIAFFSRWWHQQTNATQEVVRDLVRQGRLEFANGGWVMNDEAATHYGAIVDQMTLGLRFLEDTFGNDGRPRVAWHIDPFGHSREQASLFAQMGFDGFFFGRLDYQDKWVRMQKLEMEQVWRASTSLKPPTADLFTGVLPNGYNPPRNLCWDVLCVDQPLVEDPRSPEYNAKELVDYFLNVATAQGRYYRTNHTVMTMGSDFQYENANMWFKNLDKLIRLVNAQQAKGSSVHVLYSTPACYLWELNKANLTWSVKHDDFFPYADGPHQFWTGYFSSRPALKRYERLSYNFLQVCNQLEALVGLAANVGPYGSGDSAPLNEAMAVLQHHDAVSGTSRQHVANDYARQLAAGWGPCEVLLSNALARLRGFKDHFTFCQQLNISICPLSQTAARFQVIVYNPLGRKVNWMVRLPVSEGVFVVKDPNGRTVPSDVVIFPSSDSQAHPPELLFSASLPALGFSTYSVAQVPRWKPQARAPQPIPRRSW
# T3 sequence (O00754 602-882 limits assumed): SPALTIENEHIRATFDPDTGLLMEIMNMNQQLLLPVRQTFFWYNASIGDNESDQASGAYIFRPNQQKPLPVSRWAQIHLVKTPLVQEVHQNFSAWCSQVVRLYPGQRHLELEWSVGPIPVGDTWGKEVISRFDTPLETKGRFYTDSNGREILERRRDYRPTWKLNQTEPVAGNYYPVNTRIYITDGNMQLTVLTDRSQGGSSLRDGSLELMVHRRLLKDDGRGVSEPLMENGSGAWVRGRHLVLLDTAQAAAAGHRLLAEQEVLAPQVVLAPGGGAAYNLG
# T3 sequence (O00754 883-1011 limits assumed): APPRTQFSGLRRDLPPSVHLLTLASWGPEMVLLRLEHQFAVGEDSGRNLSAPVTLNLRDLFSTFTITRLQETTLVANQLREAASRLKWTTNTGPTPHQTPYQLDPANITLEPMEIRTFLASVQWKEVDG
# Procedure: as §1, with “glycosidases. A lyophilized extract of liver from Charonia lampas was obtained from Seikagaku Kogyo Co., Japan for the isolation of α-L-fucosidase by the published procedure of Iijima and Egami, J. Biochem. 70, 75-78 (1971).” for “glycosidases.”
# (§3) The glycosidase activities in an extract of human liver were assayed by using the appropriate fluorigenic 4-umbelliferyl glycoside substrate (Koch-Light, Haverhill, Suffolk, U.K.) with a concentration of 0.5 mM at the optimal pH for each enzyme [Burditt et al., Biochem. J. 189, 467-473 (1980)]. The specificity of the inhibitors was determined by assaying the glycosidases in the presence of and absence of a 1 mM solution of each compound. The nature of the inhibition of human α-L-fucosidase, the value of Ki determined by using the Dixon graphical procedure and the effect of pH on the inhibition were investigated as described previously by Al Daher et al., Biochem. J. 258, 613-615 (1989). […]
# α-glucosidase = settings: Kite et al. 1988; cited from earlier work
# [5] = system: mammalian α-L-fucosidases; settings: background statement; cited from earlier work
# β-D-galactosidase = target: T4, β-D-galactosidase (Homo sapiens, UniProt P16278); assay: Glycosidase specificity in human liver extract: β-D-galactosidase; type: biochemical; settings: read-out: Other specificities (% inhibition at 1 mM): β-D-galactosidase, 1 mM compound
# T4 construct: 4-umbelliferyl glycoside substrate
# T4 sequence (P16278 29-677): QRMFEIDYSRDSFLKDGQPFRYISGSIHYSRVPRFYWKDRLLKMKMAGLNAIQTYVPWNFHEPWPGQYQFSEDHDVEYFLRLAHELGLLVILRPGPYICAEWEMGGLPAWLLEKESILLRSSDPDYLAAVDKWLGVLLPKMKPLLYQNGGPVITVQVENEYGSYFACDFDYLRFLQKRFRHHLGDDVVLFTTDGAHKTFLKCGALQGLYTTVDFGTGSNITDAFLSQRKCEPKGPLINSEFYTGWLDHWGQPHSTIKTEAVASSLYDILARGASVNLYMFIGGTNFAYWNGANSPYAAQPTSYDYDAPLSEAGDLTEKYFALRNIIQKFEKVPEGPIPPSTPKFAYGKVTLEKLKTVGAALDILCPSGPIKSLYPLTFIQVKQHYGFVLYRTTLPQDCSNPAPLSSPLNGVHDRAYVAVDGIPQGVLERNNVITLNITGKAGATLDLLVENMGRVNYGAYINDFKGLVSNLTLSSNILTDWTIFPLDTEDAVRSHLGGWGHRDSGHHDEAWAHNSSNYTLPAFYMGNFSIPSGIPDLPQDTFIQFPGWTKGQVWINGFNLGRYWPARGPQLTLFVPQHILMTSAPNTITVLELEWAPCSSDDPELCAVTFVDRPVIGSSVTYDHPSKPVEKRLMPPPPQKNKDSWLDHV
# Procedure: as §1, with “glycosidases. A lyophilized extract of liver from Charonia lampas was obtained from Seikagaku Kogyo Co., Japan for the isolation of α-L-fucosidase by the published procedure of Iijima and Egami, J. Biochem. 70, 75-78 (1971).” for “glycosidases.”
# as §3
SMILES,Ki [1],"fucosidase inhibition, in words [1]",pKa (pKa of inhibitors),Other specificities (% inhibition at 1 mM): N-acetyl-β-D-hexosaminidase [2],Ki [3],Ki [4],also measured
"CC[C@@H]1N[C@H](CO)[C@@H](O)[C@H](O)[C@@H]1O [Compound 8, β-1-C-Ethyl Deoxymannojirimycin]",0.07 µM,very powerful fucosidase inhibitor,7.8,36%,2e-06 M,5.8e-07 M,
"OC[C@H]1N[C@@H](c2ccccc2)[C@@H](O)[C@@H](O)[C@@H]1O [Compound 9, β-1-C-Phenyl Deoxymannojirimycin]",1 µM,more potent fucosidase inhibitor than is DMJ (10),6.3,50%,5.5e-06 M,0.002 M,
"OC[C@H]1NC[C@@H](O)[C@@H](O)[C@@H]1O [Compound 10, deoxymannojirimycin]",,,7.2,,,,"inhibition of mannosidase activity, in words (α-D-mannosidase): showed any inhibition of mannosidase activity; inhibition at 1000 µM (α-D-mannosidase; read-out: Other specificities (% inhibition at 1 mM): α-D-mannosidase, human liver extract, 1 mM compound): 64%"
"OC[C@H]1N[C@H](CO)[C@@H](O)[C@H](O)[C@H]1O [Compound 2, α-homonojirimycin]",,,,,,,"inhibition of α-glucosidase activity, in words (α-glucosidase): potent inhibitors of α-glucosidase activity"
"C[C@H]1[C@@H](O)[C@@H](O)[C@H](O)CN1C [MeFDJ, reference compound]",0.05 µM,,7.8,59%,,,
"OC[C@H]1NC[C@H](O)[C@@H](O)[C@@H]1O [Compound 1, deoxynojirimycin]",,,,,,,"inhibition of α-glucosidase activity, in words (α-glucosidase): potent inhibitors of α-glucosidase activity"
"C[C@@H]1NC[C@@H](O)[C@H](O)[C@@H]1O [Compound 4, 1,5-Dideoxy-1,5-imino-L-fucitol]",,,,,,,"inhibition of mammalian α-L-fucosidases, in words [5]: very powerful and highly specific inhibitor"
"C[C@@H]1N[C@H](CO)[C@@H](O)[C@H](O)[C@@H]1O [Compound 7, 2,6-Imino-2,6,7-trideoxy-L-glycero-D-mannohepitol]",,did not diminish the inhibition of α-L-fucosidase,7.1,,2e-08 M,1.4e-07 M,inhibition at 1000 µM (β-D-galactosidase): 27%
